Data as given in ChEMBL document CHEMBL1133274 (Bioorg Med Chem Lett, 2000).
pIC50: −log10 of the molar value.

Key:
[1] = species: Homo sapiens; test: Cytotoxicity of compound was determined against Lo Vo colon cancer cells; type: functional, cell-based; conditions: Cancer cell lines
[2] = species: Homo sapiens; test: Cytotoxicity of compound was determined against Lo Vo colon cancer cells in presence of GUS from Escherichia coli; type: functional, cell-based; conditions: Cancer cell lines

O=C(O)[C@@H]1O[C@@H](Oc2ccc(COC(=O)N(CCCl)CCCl)cc2[N+](=O)[O-])[C@@H](O)[C@@H](O)[C@@H]1O
pIC50 [1]: < 3.40
pIC50 [2]: 4.02
